US10604514B2, “6-(5-membered heteroaryl)isoquinolin-3-yl carboxamides and preparation and use thereof” (Samumed, LLC, priority 2017, dated 2020)
pEC50: −log10 of the molar value. Like-named read-outs stand apart in the source and are kept apart here.

How the values were obtained:
[1] = system: IL-6; experiment: IL-6 inhibition in LPS-stimulated human peripheral blood mononuclear cells (HTRF); assay type: cell-based; conditions: Homo sapiens, PBMC; IL-6, LPS-stimulated huPBMCs, HTRF
Description: Fresh Normal PB MNC (Catalog # PB001, AllCells, Alameda, Calif.) were shipped overnight at 4° C. and resuspended in Roswell Park Memorial Institute (RPMI) 1640 Medium, with GlutaMAX Supplement (Catalog #61870127, ThermoFisher Scientific, Waltham, Mass.) supplemented with 1% Penicillin-Streptomycin (Catalog #151401633 ThermoFisher Scientific, Waltham, Mass.) and 1% fetal bovine serum (FBS) (Catalog #16140089, ThermoFisher Scientific, Waltham, Mass.) assay media.
Fresh normal human peripheral blood mononuclear cells (huPBMCs) were resuspended in 1% FBS-RPMI assay media with 1% Penicillin-Streptomycin 1% to a cell concentration of 1×10e6 cells/mL. Each compound was dissolved in DMSO (Catalog # D8418-100 ml, Sigma-Aldrich, St. Louis, Mo.) as a 10 mM stock and used to prepare compound source plates. Serial dilution (1:3, 10-point dose-response curves starting from 10 μM) and compound transfer was performed using the ECHO 550 (Labcyte, Sunnyvale, Calif.) into 384-well white Proxiplate-Plus assay plates (Catalog #6008289, PerkinElmer, Shelton, Conn.) with appropriate DMSO backfill for a final DMSO concentration of 0.25%. huPBMCs were plated at 5000 cells/well in the 384-well Proxiplate-Plus assay plates and incubated at 37° C.-5% CO2 for 2 hours. 50 ng/mL of Lipopolysaccharides from Escherichia coli 0111:B4 (Catalog # L5293-2 ML, Sigma-Aldrich, St. Louis, Mo.) was added after 2 hours and cells were incubated for another 22 hours at 37° C.-5% CO2. After 22 hour incubation, a mixture of anti-IL6 XL665 and anti-IL-6 Cryptate diluted in reconstitution buffer (Catalog #62IL6PEC, Cisbio Inc., Bedford, Mass.) was added to each well. Following incubation for 3 hours at room temperature, Homogeneous Time-Resolved Fluorescence (HTRF) was measured using the Envision (Perkin Elmer, Shelton, Conn.) at 665 nm and […]. The ratio of fluorescence at 665 nm to 620 nm was used as a readout for IL-6 quantification. All samples were processed in duplicate. Readings were normalized to DMSO treated cells and normalized activities were utilized for EC50 calculations. EC50 was determined using software generated by Dotmatics Limited (Windhill Bishops Stortford Herts, UK) using the Levenberg-Marquardt 4 parameter fitting procedure with finite different gradients.

[2] = system: SW480 colon carcinoma cells; experiment: Cell viability assay (CellTiter-Glo) in SW480 cells; assay type: cell-based, human; conditions: Homo sapiens, 96 h; cell viability, SW480 cells, four days, CellTiter-Glo;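 note: SW480 cells stably carrying an Sp5-luciferase TCF/LEF reporter, luminescent ATP signal as viability measure, DMSO-treated cells as control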
Description: Representative compounds were screened using the assay procedure to assess the effect on cell viability as described below.
For the Cell Viability Assays, the cells were plated at 2,000 cells/well in 384-well plates with a DMEM medium containing 1% fetal bovine serum, and 1% Penicillin-Streptomycin and incubated for four days hours at 37° C. and 5% CO2. Eight replicates of DMSO-treated cells served as controls and cells treated with compound were performed in duplicate.
After incubation, 10 μL of CellTiter-Glo (Promega) was added to each well allowed to incubate for approximately 12 minutes.
Dose-response curves were generated and EC50 concentration values were calculated using non-linear regression curve fit in the GraphPad Prism (San Diego, Calif.) or Dotmatics' Studies Software (Bishops Stortford, UK).

[3] = system: Tau phosphorylation at Ser396 (pSer396), SH-SY5Y cells; experiment: Tau phosphorylation at Ser396 (pSer396) in SH-SY5Y cells, ELISA/western blot; assay type: cell-based, human;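 note: cell lysates probed for reduced Tau pSer396 via ELISA (colorimetric) or western blot (chemiluminescence), both with one shared pSer396 antibody, EC50 for lowering phosphorylation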
[4] = system: LL29 cells (primary human fibroblasts derived from IPF patients), α-smooth muscle actin; experiment: Inhibition of fibrotic process: αSMA in TGF-β1-treated primary human fibroblasts from IPF patients (LL29 cells); assay type: cell-based; conditions: Homo sapiens, Fibroblast, 96 h; % αSMA-positive LL29 cells, TGF-β1 20 ng/mL, 4 days
Description: Representative compounds were screened using primary human fibroblasts (derived from IPF patients) treated with TGF-β1 to determine their ability to inhibit the fibrotic process.
Primary human fibroblasts derived from IPF patients (LL29 cells) [^1Xiaoqiu Liu, et. al., “Fibrotic Lung Fibroblasts Show Blunted Inhibition by cAMP Due to Deficient cAMP Response Element-Binding Protein Phosphorylation”, Journal of Pharmacology and Experimental Therapeutics (2005), 315(2), 678-687; ^2Watts, K. L., et. al., “RhoA signaling modulates cyclin D1 expression in human lung fibroblasts; implications for idiopathic pulmonary fibrosis”, Respiratory Research (2006), 7(1), 88] were obtained from American Type Culture Collection (ATCC) and expanded in F12 medium supplemented with 15% Fetal Bovine Serum and 1% Penicillin/Streptomycin.
Each compound was dissolved in DMSO as a 10 mM stock and used to prepare compound source plates. Serial dilution (1:2, 11-point dose-response curves from […] to 0.94 nM) and compound transfer was performed using the ECHO 550 (Labcyte, Sunnyvale, Calif.) into 384-well clear bottom assay plates (Greiner Bio-One) with appropriate DMSO backfill for a final DMSO concentration of 0.1%. LL29 cells were plated at 1,500 cells/well in 70 μL/well F12 medium supplemented with 1% Fetal Bovine Serum. TGF-β1 (Peprotech; 20 ng/mL) was added to the plates to induce fibrosis (ref. 1 and 2 above). Wells treated with TGF-31 and containing DMSO were used as positive control, and cells with only DMSO were negative control. Cells were incubated at 37° C. and 5% CO2 for 4 days. Following incubation for 4 days, SYTOX green nucleic acid stain (Life Technologies [Thermo Fisher Scientific]) was added to the wells at a final concentration of 1 μM and incubated at room temperature for 30 min. Cells were then fixed using 4% formaldehyde (Electron Microscopy Sciences), washed 3 times with PBS followed by blocking and permeabilization using 3% Bovine Serum Albumin (BSA; Sigma) and 0.3% Triton X-100 (Sigma) in PBS. Cells were then stained with antibody specific to α-smooth muscle actin (αSMA; Abcam) (ref. 1 and 2 above) in 3% Bovine Serum Albumin (BSA; Sigma) and 0.3% Triton X-100 (Sigma) in PBS, and incubated overnight at 4° C. Cells were then washed 3 times with PBS, followed by incubation with Alexa Flor-647 conjugated secondary antibody (Life Technologies [Thermo Fisher Scientific]) and DAPI in 3% Bovine Serum Albumin (BSA; Sigma) and 0.3% Triton X-100 (Sigma) in PBS at room temperature for 1 hour. Cells were then washed 3 times with PBS and plates were sealed for imaging. αSMA staining was imaged by excitation at 630 nm and emission at 665 nm and quantified using the Compartmental Analysis program on the CellInsight CX5 (Thermo Scientific). Dead or apoptotic cells were excluded from analysis based on positive SYTOX green staining. % of total cells positive for αSMA were counted in each well and normalized to the average of 11 wells treated with TGF-β1 on the same plate using Dotmatics' Studies Software.

[5] = system: Wnt activity (Sp5-Luc reporter in SW480 colon carcinoma cells); experiment: Wnt activity screening assay (Sp5-Luc reporter gene assay); assay type: cell-based, human; conditions: Homo sapiens; for pEC50: Sp5-Luc reporter, SW480 cells, 36 to 48 hours
Description: The screening assay for Wnt activity is described as follows. Reporter cell lines can be generated by stably transducing cancer cell lines (e.g., colon cancer) or primary cells (e.g., IEC-6 intestinal cells) with a lentiviral construct that includes a Wnt-responsive promoter driving expression of the firefly luciferase gene.
SW480 colon carcinoma cells were transduced with a lentiviral vector expressing luciferase with a human Sp5 promoter consisting of a sequence of eight TCF/LEF binding sites. SW480 cells stably expressing the Sp5-Luc reporter gene and a hygromycin resistance gene were selected by treatment with 150 μg/mL of hygromycin for 7 days. These stably transduced SW480 cells were expanded in cell culture and used for all further screening activities. Each compound was dissolved in DMSO as a 10 mM stock and used to prepare compound source plates. Serial dilution (1:3, 10-point dose-response curves starting from 10 μM) and compound transfer was performed using the ECHO 550 (Labcyte, Sunnyvale, Calif.) into 384-well white solid bottom assay plates (Greiner Bio-One) with appropriate DMSO backfill for a final DMSO concentration of 0.1%. For Sp5-Luc reporter gene assays, the cells were plated at 4,000 cells/well in 384-well plates with a DMEM medium containing 1% fetal bovine serum, and 1% Penicillin-Streptomycin and incubated for 36 to 48 hours at 37° C. and 5% CO2. Following incubation, 15 μl of BriteLite Plus luminescence reagent (Perkin Elmer) was added to each well of the 384-well assay plates. The plates were placed on an orbital shaker for 2 min and then luminescence was quantified using the Envision (Perkin Elmer) plate reader. Readings were normalized to DMSO only treated cells, and normalized activities were utilized for EC50 calculations using the dose-response log (inhibitor) vs. response -variable slope (four parameters) nonlinear regression feature available in GraphPad Prism 5.0 (or Dotmatics).

[6] = Homo sapiens, SH-SY5Y cells, overnight (16-18 h), read-out: pSer396 Tau EC50

| Compound | pEC50 [1] | pEC50 [2] | pEC50 [3, 6] | pEC50 [5] | pEC50 [4] | inhibition at 10 µM ([5]; SW480, read-out: percent inhibition at 10 μM) [%] | pEC50 ([3]; Homo sapiens, SH-SY5Y, read-out: EC50 in the Tau assay) | pEC50 ([3]; control DYRK1A inhibitors, printed '>10 M' (μ probably lost), read-out: EC50 in the Tau assay) |
| --- | --- | --- | --- | --- | --- | --- | --- | --- |
| [2H]c1nc(NC(=O)c2ccnc(N3CCN(CC)CC3)c2)cc2cc(-c3cnn(C)c3)ccc12 [Compound 8, 2-(4-Ethylpiperazin-1-yl)-N-(6-(1-methyl-1H-pyrazol-4-yl)isoquinolin-3-yl-1-d)isonicotinamide] | 6.03 | 7.00 | < 5.00 | 7.55 | 7.02 | – | – | – |
| [2H]C1([2H])CCC([2H])([2H])N1c1cc(C(=O)Nc2cc3cc(-c4cnc(C)n4C)ccc3cn2)ccn1 [Compound 73, N-(6-(1,2-Dimethyl-1H-imidazol-5-yl)isoquinolin-3-yl)-2-(pyrrolidin-1-yl-2,2,5,5-d4)isonicotinamide] | 5.68 | – | < 5.00 | 5.69 | 5.77 | – | – | – |
| [2H]C1([2H])OC([2H])([2H])C([2H])([2H])N(c2cc(C(=O)Nc3cc4cc(-c5cncn5C)ccc4cn3)ccn2)C1([2H])[2H] [Compound 76, N-(6-(1-Methyl-1H-imidazol-5-yl)isoquinolin-3-yl)-2-(morpholino-d8) isonicotinamide] | 6.03 | 6.34 | < 5.00 | 5.47 | 6.21 | – | – | – |
| [2H]C1([2H])N(c2cc(C(=O)Nc3cc4cc(-c5cncn5C)ccc4cn3)ccn2)C([2H])([2H])C([2H])([2H])C1([2H])[2H] [Compound 78, N-(6-(1-Methyl-1H-imidazol-5-yl)isoquinolin-3-yl)-2-(pyrrolidin-1-yl-d8) isonicotinamide] | 5.98 | 6.33 | < 5.00 | 5.43 | 6.28 | – | – | – |
| Cc1nnc(-c2cc(F)c3cnc(NC(=O)C4CCC(NCC(F)F)CC4)cc3c2)s1 (stereo not shown) [Compound 204] | – | – | < 5.00 | – | – | – | – | – |
| COc1ccc2c(c1)[nH]c1c(C)nccc12 [Harmine, reference compound] | – | – | – | – | – | – | < 5.00 | – |
| CCN1/C(=C/C(C)=O)Sc2ccc(O)cc21 [Indy, reference compound] | – | – | – | – | – | – | – | < 5.00 |

Further lines, with some results ahead:

| pEC50 [1] | pEC50 [2] | pEC50 [3, 6] | pEC50 [5] | Compound | pEC50 [4] | inhibition at 10 µM ([5]; SW480, read-out: percent inhibition at 10 μM) [%] | pEC50 ([3]; Homo sapiens, SH-SY5Y, read-out: EC50 in the Tau assay) | pEC50 ([3]; control DYRK1A inhibitors, printed '>10 M' (μ probably lost), read-out: EC50 in the Tau assay) |
| --- | --- | --- | --- | --- | --- | --- | --- | --- |
| 6.01 | 5.91 | 6.99 | 6.09 | [2H]c1c(NC(=O)C2CCN(CC(C)C)CC2)ncc2ccc(-c3cnn(C)c3)cc12 [Compound 6, 1-Isobutyl-N-(6-(1-methyl-1H-pyrazol-4-yl)isoquinolin-3-yl-4-d)piperidine-4-carboxamide] | 6.88 | – | – | – |
| 5.73 | 6.97 | < 5.00 | 7.44 | [2H]c1nc(NC(=O)c2ccnc(N3CCN(C(C)C)CC3)c2)cc2cc(-c3cnn(C)c3)ccc12 [Compound 9, 2-(4-Isopropylpiperazin-1-yl)-N-(6-(1-methyl-1H-pyrazol-4-yl)isoquinolin-3-yl-1-d)isonicotinamide] | 6.80 | – | – | – |
| 5.95 | 6.32 | < 5.00 | < 5.00 | [2H]C1([2H])OC([2H])([2H])C([2H])([2H])N(c2cc(C(=O)Nc3cc4cc(-c5cnc(C)n5C)ccc4cn3)ccn2)C1([2H])[2H] [Compound 74, N-(6-(1,2-Dimethyl-1H-imidazol-5-yl)isoquinolin-3-yl)-2-(morpholino-d8) isonicotinamide] | 5.90 | 30.5 | – | – |
| 6.07 | 6.35 | < 5.00 | 5.46 | [2H]C1([2H])N(c2cc(C(=O)Nc3cc4cc(-c5cncn5C)ccc4cn3)ccn2)C([2H])([2H])C([2H])([2H])C([2H])([2H])C1([2H])[2H] [Compound 75, N-(6-(1-Methyl-1H-imidazol-5-yl)isoquinolin-3-yl)-2-(piperidin-1-yl-d10) isonicotinamide] | 6.35 | – | – | – |
| 5.71 | – | < 5.00 | 5.48 | [2H]C1([2H])N(c2cc(C(=O)Nc3cc4cc(-c5cnc(C)n5C)ccc4cn3)ccn2)C([2H])([2H])C([2H])([2H])C1([2H])[2H] [Compound 77, N-(6-(1,2-Dimethyl-1H-imidazol-5-yl)isoquinolin-3-yl)-2-(pyrrolidin-1-yl-d8)isonicotinamide] | 5.67 | – | – | – |
| 5.87 | 6.33 | < 5.00 | 5.39 | [2H]C1([2H])CCC([2H])([2H])N1c1cc(C(=O)Nc2cc3cc(-c4cncn4C)ccc3cn2)ccn1 [Compound 79, N-(6-(1-methyl-1H-imidazol-5-yl)isoquinolin-3-yl)-2-(pyrrolidin-1-yl-2,2,5,5-d4)isonicotinamide] | 6.24 | – | – | – |
